Laboratory results taken from patent US20140030341A1, “POLYMERS AND METHODS FOR THE TREATMENT OF PAIN” (RUTGERS, THE STATE UNIVERSITY OF NEW JERSEY, priority 2011, published 2014).

What was measured:
[1] = system: 3T3 fibroblasts cells (NIH 3T3 fibroblast cell line)
Method: Cytocompatibility was evaluated by culturing 3T3 fibroblasts cells (NIH 3T3 fibroblast cell line) in diacid- and/or polymer-containing medium at concentrations of 0.10 and 0.01 mg/mL Cell culture medium consisted of Dulbecco's modified Eagle's medium (DMEM), 10 vol. % fetal bovine serum (Atlanta Biologicals, Lawrenceville, Ga.), 1% 1-glutamate, and 1% penicillin/streptomycin. Fibroblasts were seeded at a density of 2,000 cells/well in 96 well plates containing 150 μL of culture medium. The positive control consisted of fibroblasts with cell culture media only and the negative control consisted of fibroblasts with cell culture media and 5% 200-proof ethanol (PHARMCO-AAPER). […] Cell viability was determined by using Calcein AM and ethidium homodimer-1 staining (Molecular Probes) according to the manufacturer's protocol and the results normalized to the positive control. […] Experiments were performed in quadruplicates.

[2] = 37° C., pH 7.4 buffer, HPLC
Method: The system was connected to a Dell computer running Empire software. Samples were filtered using 0.22 μm poly(vinylidine fluoride) syringe filters (Fisher). […] Mobile phase used was composed of 50 mM KH2PO4, 2.5 mM sodium dodecyl sulfate, 25% acetonitrile, 75% water at pH 3.
In vitro degradation studies. Diacid 3 (5.0 mg, triplicate) was placed into scintillation vials and 20.00 mL phosphate buffered saline (PBS) pH 7.4 added. Samples were incubated at 37° C. under constant shaking (60 rpm) in an Excella E25 Incubator Shaker (New Brunswick Scientific). PBS (1.00 mL) was removed at predetermined time points (2 h, 5 h, 10 h, and daily starting on day 1) and replaced with fresh PBS (1.00 mL). The pH was checked using an Accumet® Research AR15 pH meter (Fisher Scientific) and adjusted using 0.50 M NaOH when needed. Samples were immediately analyzed by HPLC using the conditions outlined above.
Samples were incubated at 37° C. under constant shaking (60 rpm) in an Excella E25 Incubator Shaker (New Brunswick Scientific). PBS (20.00 mL) was removed daily and replaced with fresh PBS. Samples were analyzed by HPLC.

Q: With `CN1CC[C@]23c4c5ccc(OC(=O)CCCC(=O)O)c4O[C@H]2[C@@H](OC(=O)CCCC(=O)O)C=C[C@H]3[C@H]1C5` [Diacid 3] as the compound, how does the “cell viability vs positive control (FIG. 7A)” value ([1]; 0.10 mg/mL, 95% confidence level) read?
A: no statistical differences

Q: And the cytotoxicity towards fibroblasts ([1]; 0.10 and 0.01 mg/mL)?
A: non-cytotoxic

Q: And the “cell viability vs positive control (statistical analysis)” value ([1]; 0.10 and 0.01 mg/mL, 24, 48 and 72 h, 95% confidence level)?
A: no significant differences

Q: What about the hydrolytic degradation pathway [2] of the same compound?
A: hydrolyzes into a monoacid
